Data as given in patent publication US20120172302A1, “COMPOSITION FOR THE TREATMENT OF BENIGN PROSTATE HYPERPLASIA” (priority 2009, published 2012).
Square brackets hold non-standard residues; d marks the D form. Peptide text beside a SMILES is read from it. * marks the point of attachment. dPhe(4-NHCONH2) = NC(=O)Nc1ccc(C[C@@H](N)C(=O)O)cc1; Dihydroorotyl(S) = O=C1C[C@@H](C(=O)*)NC(=O)N1; dPhe(4-Cl) = N[C@H](Cc1ccc(Cl)cc1)C(=O)O; Phe(4-NH2) = Nc1ccc(C[C@H](N)C(=O)O)cc1; d2Nal = N[C@H](Cc1ccc2ccccc2c1)C(=O)O; Lys(iPr) = CC(C)NCCCC[C@H](N)C(=O)O; d3Pal = N[C@H](Cc1cccnc1)C(=O)O

How the values were obtained:
patients with BPH = experiment: IPSS global quality of life (QoL) question, clinical trial; type: in vivo, men; conditions: for Percentage of patients feeling delighted, pleased, or mostly satisfied (IPSS Global QoL scores 0-2) / Percentage of patients feeling unhappy or terrible (IPSS Global QoL scores 5 and 6): combined group
Description: For each patient, the following parameters were measured or assessed (using the methods discussed below), at time points of screening (e.g. −7 days) day 0 (“baseline”), day 14, day 28 and day 42:
After the initial 6-week treatment period of the exploratory study had been completed, a 12-month follow-up period looking at long-term efficacy commenced. Interim data of the main efficacy variables (IPSS, IPSS Global QoL, prostate volume, urinary flow, and post-void residual volume—measured as set out below) after 6 months' follow-up are also presented herein Table 1, 2, 3 FIG. 1b), together with some IPSS data at 9 and 12 months (FIG. 1b).
Included in the IPSS is one item to evaluate QoL (IPSS-global QoL). The Global QoL Question was developed alongside the IPSS and was officially included as part of the IPSS in 1993 when the WHO formally recommended the IPSS for both symptom and QoL assessment. […] This question assesses the degree to which patients find their symptoms bothersome. Patients are asked about how they would feel if they were to spend the rest of their lives with their prostate symptoms just as they are now. The choices for answering this quality of life question ranged from “delighted” (rating=0) to “terrible” (rating=6).

testosterone = experiment: Serum testosterone concentration-time profile (LC-MS/MS), clinical trial; type: in vivo, men; conditions: for Lowest mean testosterone level: on Day 1
[1] = Month 6 follow-up, 32 mg group, n=7
[2] = Month 6 follow-up, 64 mg group, n=4
[3] = Month 6 follow-up, 16+16 mg group, n=6
[4] = Month 6 follow-up, 32+32 mg group, n=7

CC(=O)N[C@H](Cc1ccc2ccccc2c1)C(=O)N[C@H](Cc1ccc(Cl)cc1)C(=O)N[C@H](Cc1cccnc1)C(=O)N[C@@H](CO)C(=O)N[C@@H](Cc1ccc(NC(=O)[C@@H]2CC(=O)NC(=O)N2)cc1)C(=O)N[C@H](Cc1ccc(NC(N)=O)cc1)C(=O)N[C@@H](CC(C)C)C(=O)N[C@@H](CCCCNC(C)C)C(=O)N1CCC[C@H]1C(=O)N[C@H](C)C(N)=O [Degarelix, D-Alaninamide, N-acetyl-3-(2-naphthalenyl)-D-alanyl-4-chloro-D-phenylalanyl-3-(3-pyridinyl)-D-alanyl-L-seryl-4-[[[(4S)-hexahydro-2,6-dioxo-4-pyrimidinyl]carbonyl]amino]-L-phenylalanyl-4-[(aminocarbonyl)amino]-D-phenylalanyl-L leucyl-N6-(1-methylethyl)-L-lysyl-L-prolyl] (Ac-[d2Nal][dPhe(4-Cl)][d3Pal]S[Phe(4-NH2)](Dihydroorotyl(S))[dPhe(4-NHCONH2)]L[Lys(iPr)]P[dA]-NH2)
Mean IPSS global QoL score (patients with BPH; Baseline of 6-month follow-up patients, 32 mg group, n=7): 2.8 (n = 7) | Mean IPSS global QoL score (patients with BPH; Baseline of 6-month follow-up patients, 64 mg group, n=4): 4.6 (n = 4) | Mean IPSS global QoL score (patients with BPH; Baseline of 6-month follow-up patients, 16+16 mg group, n=6): 4.5 (n = 6) | Mean IPSS global QoL score (patients with BPH; Baseline of 6-month follow-up patients, 32+32 mg group, n=7): 4.3 (n = 7) | Mean IPSS global QoL score (patients with BPH; Baseline, 32 mg group, N=12): 3.8 (1.7) | Mean IPSS global QoL score (patients with BPH; Baseline, 64 mg group, N=13): 4.7 (1.4) | Mean IPSS global QoL score (patients with BPH; Baseline, 16+16 mg group, N=13): 4.2 (1.1) | Mean IPSS global QoL score (patients with BPH; Baseline, 32+32 mg group, N=12): 4.3 (1.3) | IPSS global QoL mean change from baseline (patients with BPH; Day 42, 32 mg group): −2.1 (3.0) | Mean IPSS global QoL score (patients with BPH; Day 42, 32 mg group): 1.8 (2.0) | IPSS global QoL mean change from baseline (patients with BPH; Day 42, 64 mg group): −2.2 (1.6) | Mean IPSS global QoL score (patients with BPH; Day 42, 64 mg group): 2.5 (1.3) | IPSS global QoL mean change from baseline (patients with BPH; Day 42, 16+16 mg group): −1.2 (1.4) | Mean IPSS global QoL score (patients with BPH; Day 42, 16+16 mg group): 2.9 (1.4) | IPSS global QoL mean change from baseline (patients with BPH; Day 42, 32+32 mg group): −2.4 (1.9) | Mean IPSS global QoL score (patients with BPH; Day 42, 32+32 mg group): 1.9 (1.6) | Percentage of patients feeling delighted, pleased, or mostly satisfied (IPSS Global QoL scores 0-2) (patients with BPH; Day 42): 58% | Percentage of patients feeling unhappy or terrible (IPSS Global QoL scores 5 and 6) (patients with BPH; Day 42): 12% | IPSS global QoL change from baseline (patients with BPH; [1]): −1.4 (1.1) | Mean IPSS global QoL score (patients with BPH; [1]): 1.4 (1.5) | IPSS global QoL change from baseline (patients with BPH; [2]): −0.8 (1.7) | Mean IPSS global QoL score (patients with BPH; [2]): 3.8 (1.3) | IPSS global QoL change from baseline (patients with BPH; [3]): −0.3 (0.5) | Mean IPSS global QoL score (patients with BPH; [3]): 4.2 (1.5) | IPSS global QoL change from baseline (patients with BPH; [4]): −2.7 (2.1) | Mean IPSS global QoL score (patients with BPH; [4]): 1.6 (0.8) | Percentage of patients feeling delighted, pleased, or mostly satisfied (IPSS Global QoL scores 0-2) (patients with BPH; baseline): 8% | Percentage of patients feeling unhappy or terrible (IPSS Global QoL scores 5 and 6) (patients with BPH; baseline): 48% | Mean minimal value of testosterone (Cnadir) (testosterone; 32 mg group): 0.9 ng/mL | Mean time for first return of testosterone to baseline interval after the first administration (testosterone; 32 mg group): 9.1 (SD=5.2) days | Mean time of testosterone Cnadir (tnadir) (testosterone; 32 mg group): 1.3 days | Number of patients with testosterone below the castration level 0.5 ng/mL at one or more time-points (testosterone; 32 mg group): 3 patients | Percentage of patients with testosterone below the castration level 0.5 ng/mL at one or more time-points (testosterone; 32 mg group): 25% | Testosterone greatest change from baseline (testosterone; 32 mg group): -4.2 ng/mL | Lowest mean testosterone level (testosterone; 32 mg group): 0.9 ng/mL | Mean area of testosterone concentrations below 0.5 ng/mL (testosterone; 32 mg group, range 0.0-0.1): 0.0 ng·days/mL | Mean minimal value of testosterone (Cnadir) (testosterone; 64 mg group): 0.4 ng/mL | Mean time of testosterone Cnadir (tnadir) (testosterone; 64 mg group): 8.8 days | Number of patients with testosterone below the castration level 0.5 ng/mL at one or more time-points (testosterone; 64 mg group): 9 patients | Percentage of patients with testosterone below the castration level 0.5 ng/mL at one or more time-points (testosterone; 64 mg group): 69% | Testosterone greatest change from baseline (testosterone; 64 mg group): -4.7 ng/mL | Number of patients still below testosterone 0.5 ng/mL on Day 42 (testosterone; 64 mg group, of the 8 patients with testosterone <=0.5 ng/mL): Five | Lowest mean testosterone level (testosterone; 64 mg group): 0.4 ng/mL | Mean area of testosterone concentrations below 0.5 ng/mL (testosterone; 64 mg group, range 0.0-15.2): 4.4 ng·days/mL | Time for testosterone level to recover above 0.5 ng/mL (testosterone; 64 mg group, the other three of 8 patients): ≤ 5 days | Duration of castration (testosterone below 0.5 ng/mL) (testosterone; 16+16 mg administration, the 2 castrated patients): less than 2 days | Mean time for first return of testosterone to baseline interval after the first administration (testosterone; 16+16 mg group): 6.1 (SD=2.8) days | Number of patients with testosterone below the castration level 0.5 ng/mL at one or more time-points (testosterone; 16+16 mg group): 2 patients | Percentage of patients with testosterone below the castration level 0.5 ng/mL at one or more time-points (testosterone; 16+16 mg group): 15% | Testosterone greatest change from baseline (testosterone; 16+16 mg group): -4.0 ng/mL
